From ChEMBL document CHEMBL6134817, “Novel gut-restricted bivalent agonists targeting mucosal 5-HT4R: Design, synthesis, and biological evaluation” (Eur J Med Chem, 2025)
pEC50, pIC50, pKi: −log10 of the molar value.

How the values were obtained:
[1] = biological target: T1, 5-hydroxytryptamine receptor 4 (Homo sapiens, UniProt Q13639); assay: Agonist activity at full-length human 5-HT4R stably expressed in HEK293 cells assessed as increase in intracellular cAMP level incubated for 30 mins under dark condition by reporter gene assay; type: functional, cell-based
[2] = biological target: T1, 5-hydroxytryptamine receptor 4; assay: Agonist activity at full-length human 5-HT4R stably expressed in HEK293 cells assessed as increase in intracellular cAMP level incubated for 30 mins under dark condition by reporter gene assay relative to control; type: functional, cell-based
[3] = biological target: T1, 5-hydroxytryptamine receptor 4; assay: Displacement of [3H]-GR113808 from full-length human 5-HT4R stably expressed in HEK293 cell membrane by MicroBeta2 Reader analysis; type: cell membranes
[4] = Permeability of compound assessed as compound recovery at 10 uM incubated for 4 hrs by PAMPA; type: ADME; conditions: read-out: Drug recovery
[5] = biological target: Voltage-gated inwardly rectifying potassium channel KCNH2 (Homo sapiens, UniProt Q12809); assay: Inhibition of hERG; type: toxicity
[6] = Apparent permeability coefficient of compound at 10 uM incubated for 4 hrs by PAMPA; type: ADME

T1 sequence (Q13639 whole entry): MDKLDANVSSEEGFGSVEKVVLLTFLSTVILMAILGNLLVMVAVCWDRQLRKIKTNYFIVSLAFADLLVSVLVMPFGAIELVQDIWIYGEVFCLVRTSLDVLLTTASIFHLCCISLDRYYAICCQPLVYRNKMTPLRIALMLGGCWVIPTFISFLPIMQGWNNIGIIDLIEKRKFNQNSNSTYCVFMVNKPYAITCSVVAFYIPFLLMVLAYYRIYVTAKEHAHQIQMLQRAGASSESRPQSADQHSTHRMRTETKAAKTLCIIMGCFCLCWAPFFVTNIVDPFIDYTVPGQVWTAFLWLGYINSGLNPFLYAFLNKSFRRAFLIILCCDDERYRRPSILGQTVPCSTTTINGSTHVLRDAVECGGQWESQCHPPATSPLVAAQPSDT
Voltage-gated inwardly rectifying potassium channel KCNH2, sequence (Q12809 whole entry): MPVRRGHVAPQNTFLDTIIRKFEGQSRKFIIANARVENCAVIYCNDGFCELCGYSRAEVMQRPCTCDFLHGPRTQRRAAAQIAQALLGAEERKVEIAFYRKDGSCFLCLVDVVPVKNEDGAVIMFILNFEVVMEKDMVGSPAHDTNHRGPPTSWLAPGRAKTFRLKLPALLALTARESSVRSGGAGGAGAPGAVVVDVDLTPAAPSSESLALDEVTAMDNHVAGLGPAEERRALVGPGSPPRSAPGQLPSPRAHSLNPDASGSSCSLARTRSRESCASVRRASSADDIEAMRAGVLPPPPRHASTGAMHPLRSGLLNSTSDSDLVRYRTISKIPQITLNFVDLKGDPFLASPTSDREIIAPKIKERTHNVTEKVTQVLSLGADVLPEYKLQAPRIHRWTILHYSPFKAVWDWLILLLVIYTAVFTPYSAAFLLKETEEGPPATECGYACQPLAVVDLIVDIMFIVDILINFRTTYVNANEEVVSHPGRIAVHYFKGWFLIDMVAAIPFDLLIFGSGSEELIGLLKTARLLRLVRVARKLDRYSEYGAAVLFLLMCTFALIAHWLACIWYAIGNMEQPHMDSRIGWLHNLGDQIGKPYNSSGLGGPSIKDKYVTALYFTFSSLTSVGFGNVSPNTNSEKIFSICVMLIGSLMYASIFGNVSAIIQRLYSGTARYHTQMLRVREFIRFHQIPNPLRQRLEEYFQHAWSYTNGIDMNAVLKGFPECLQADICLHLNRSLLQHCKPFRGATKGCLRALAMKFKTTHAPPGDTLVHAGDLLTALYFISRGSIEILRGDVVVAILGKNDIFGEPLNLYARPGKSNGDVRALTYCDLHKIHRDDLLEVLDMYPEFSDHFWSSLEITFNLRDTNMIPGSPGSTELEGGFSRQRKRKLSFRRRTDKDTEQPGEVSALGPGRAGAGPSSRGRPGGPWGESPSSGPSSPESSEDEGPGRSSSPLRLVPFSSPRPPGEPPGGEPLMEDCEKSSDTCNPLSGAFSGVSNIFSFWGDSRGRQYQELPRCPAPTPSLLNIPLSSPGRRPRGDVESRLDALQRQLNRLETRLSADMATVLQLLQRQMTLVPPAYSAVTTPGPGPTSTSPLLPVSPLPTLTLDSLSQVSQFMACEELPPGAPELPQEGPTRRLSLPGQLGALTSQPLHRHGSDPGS

SMILES	pEC50 [1]	Efficacy ([2]; filed as agonist) [%]	further results
Nc1c(Cl)cc(C(=O)NC2CCN(CCC(=O)NCCOCCOCCOCCNC(=O)NCCCCNC(=O)NCCOCCOCCOCCNC(=O)CCN3CCC(NC(=O)c4cc(Cl)c(N)c5c4OCC5)CC3)CC2)c2c1CCO2	8.17	125	–
Nc1c(Cl)cc(C(=O)NC2CCN(CCC(=O)NCCCCCCCCNC(=O)NCCCCNC(=O)NCCCCCCCCNC(=O)CCN3CCC(NC(=O)c4cc(Cl)c(N)c5c4OCC5)CC3)CC2)c2c1CCO2	6.13	125	–
Nc1c(Cl)cc(C(=O)NC2CCN(CCC(=O)NCCOCCOCCNC(=O)C(O)C(O)C(=O)NCCOCCOCCNC(=O)CCN3CCC(NC(=O)c4cc(Cl)c(N)c5c4OCC5)CC3)CC2)c2c1CCO2 (configuration not stated)	8.48	123	–
Nc1c(Cl)cc(C(=O)NC2CCN(CCC(=O)NCCOCCOCCNC(=O)C3(C(=O)NCCOCCOCCNC(=O)CCN4CCC(NC(=O)c5cc(Cl)c(N)c6c5OCC6)CC4)CCCC3)CC2)c2c1CCO2	8.52	130	–
Nc1c(Cl)cc(C(=O)NC2CCN(CCC(=O)NCCOCCOCCNC(=O)N[C@H]3C[C@H](NC(=O)NCCOCCOCCNC(=O)CCN4CCC(NC(=O)c5cc(Cl)c(N)c6c5OCC6)CC4)C3)CC2)c2c1CCO2	8.58	115	–
Nc1c(Cl)cc(C(=O)NC2CCN(CCC(=O)NCCCCCCCCNC(=O)NCCCCCCNC(=O)NCCCCCCCCNC(=O)CCN3CCC(NC(=O)c4cc(Cl)c(N)c5c4OCC5)CC3)CC2)c2c1CCO2	7.76	90.9	–
O=C(CCN1CCC(COc2noc3c(O[C@@H]4CCOC4)cccc23)CC1)NCCOCCOCCNC(=O)NCCCCNC(=O)NCCOCCOCCNC(=O)CCN1CCC(COc2noc3cccc(O[C@@H]4CCOC4)c23)CC1	< 5.00	–	Efficacy [2]: 0.16%
CN(CCOCCNC(=O)NCCOCCN(C)C(=O)CCCN1CCC(NC(=O)c2cc(Cl)c(N)c3c2OCC3)CC1)C(=O)CCCN1CCC(NC(=O)c2cc(Cl)c(N)c3c2OCC3)CC1	10.15	95.3	pKi [3]: 7.00
Nc1c(Cl)cc(C(=O)NC2CCN(CCC(=O)NCCOCCOCCNC(=O)COCC(=O)NCCOCCOCCNC(=O)CCN3CCC(NC(=O)c4cc(Cl)c(N)c5c4OCC5)CC3)CC2)c2c1CCO2	8.31	104	–
CC(C)(C(=O)NCCOCCOCCNC(=O)CCN1CCC(NC(=O)c2cc(Cl)c(N)c3c2OCC3)CC1)C(=O)NCCOCCOCCNC(=O)CCN1CCC(NC(=O)c2cc(Cl)c(N)c3c2OCC3)CC1	8.26	129	–
Nc1c(Cl)cc(C(=O)NC2CCN(CCCC(=O)NCCOCCNC(=O)NCCOCCNC(=O)CCCN3CCC(NC(=O)c4cc(Cl)c(N)c5c4OCC5)CC3)CC2)c2c1CCO2	9.48	88.6	pKi [3]: 7.12
Nc1c(Cl)cc(C(=O)NC2CCN(CCCC(=O)NCCOCCOCCNC(=O)NCCCCNC(=O)NCCOCCOCCNC(=O)CCCN3CCC(NC(=O)c4cc(Cl)c(N)c5c4OCC5)CC3)CC2)c2c1CCO2	8.63	92.4	–
Nc1c(Cl)cc(C(=O)NC2CCN(CCNC(=O)CCOCCOCCNC(=O)NCCCCNC(=O)NCCOCCOCCNC(=O)CCN3CCC(NC(=O)c4cc(Cl)c(N)c5c4OCC5)CC3)CC2)c2c1CCO2	8.29	89.7	–
Nc1c(Cl)cc(C(=O)NC2CCN(CCC(=O)NCCOCCOCCNC(=O)NCCOCCOCCNC(=O)CCN3CCC(NC(=O)c4cc(Cl)c(N)c5c4OCC5)CC3)CC2)c2c1CCO2	9.02	103	–
Nc1c(Cl)cc(C(=O)NC2CCN(CCC(=O)NCCOCCOCCNC(=O)C3(C(=O)NCCOCCOCCNC(=O)CCN4CCC(NC(=O)c5cc(Cl)c(N)c6c5OCC6)CC4)CCC3)CC2)c2c1CCO2	8.09	122	–
Nc1c(Cl)cc(C(=O)NC2CCN(CCC(=O)NCCOCCOCCNC(=O)N3CC4(C3)CN(C(=O)NCCOCCOCCNC(=O)CCN3CCC(NC(=O)c5cc(Cl)c(N)c6c5OCC6)CC3)C4)CC2)c2c1CCO2	7.94	122	–
Nc1c(Cl)cc(C(=O)NC2CCN(CCC(=O)NCCOCCOCCNC(=O)N3CCN(C(=O)NCCOCCOCCNC(=O)CCN4CCC(NC(=O)c5cc(Cl)c(N)c6c5OCC6)CC4)CC3)CC2)c2c1CCO2	8.15	127	–
Nc1c(Cl)cc(C(=O)NC2CCN(CCC(=O)NCCOCCOCCNC(=O)NCCCCNC(=O)NCCOCCOCCNC(=O)CCN3CCC(NC(=O)c4cc(Cl)c(N)c5c4OCC5)CC3)CC2)c2c1CCO2	8.19	112	pKi [3]: 6.71
Nc1c(Cl)cc(C(=O)NCC2CCN(CCC(=O)NCCOCCOCCNC(=O)NCCCCNC(=O)NCCOCCOCCNC(=O)CCN3CCC(CNC(=O)c4cc(Cl)c(N)c5c4OCC5)CC3)CC2)c2c1CCO2	9.40	107	pKi [3]: 7.26
Nc1c(Cl)cc(C(=O)NC2CCN(CCC(=O)NCCOCCOCCNC(=O)/C=C/C(=O)NCCOCCOCCNC(=O)CCN3CCC(NC(=O)c4cc(Cl)c(N)c5c4OCC5)CC3)CC2)c2c1CCO2	8.17	98	–

SMILES	pEC50 [1]	Efficacy ([2]; filed as agonist) [%]	further results
COCCCN1CCC(NC(=O)c2cc(Cl)c(N)c3c2OCC3)CC1 [PRUCALOPRIDE]	–	110	recovery at 4 h, 10 µM [4]: 92.4%; pIC50 [5]: 5.39; Papp at 4 h, 10 µM [6]: < 0.0185 ×10⁻⁶ cm/s
Nc1c(Cl)cc(C(=O)NCCC2CCN(CCC(=O)NCCOCCOCCNC(=O)NCCCCNC(=O)NCCOCCOCCNC(=O)CCN3CCC(CCNC(=O)c4cc(Cl)c(N)c5c4OCC5)CC3)CC2)c2c1CCO2	7.09	102	–
Nc1c(Cl)cc(C(=O)NCC2CCN(CCCCCC(=O)NCCOCCOCNC(=O)N[C@H]3CC[C@H](NC(=O)NCOCCOCCNC(=O)CCCCCN4CCC(CNC(=O)c5cc(Cl)c(N)c6c5OCC6)CC4)CC3)CC2)c2c1CCO2	8.86	104	–
Nc1c(Cl)cc(C(=O)NC2CCN(CCC(=O)NCCOCCNC(=O)NCCCCNC(=O)NCCOCCNC(=O)CCN3CCC(NC(=O)c4cc(Cl)c(N)c5c4OCC5)CC3)CC2)c2c1CCO2	8.43	119	–
Nc1c(Cl)cc(C(=O)NC2CCN(CCCCCC(=O)NCCOCCOCCNC(=O)NCCCCNC(=O)NCCOCCOCCNC(=O)CCCCCN3CCC(NC(=O)c4cc(Cl)c(N)c5c4OCC5)CC3)CC2)c2c1CCO2	8.42	106	–
Nc1c(Cl)cc(C(=O)NC2CCN(CCC(=O)NCCOCCOCCOCCNC(=O)NCCOCCOCCOCCNC(=O)CCN3CCC(NC(=O)c4cc(Cl)c(N)c5c4OCC5)CC3)CC2)c2c1CCO2	8.97	119	–
Nc1c(Cl)cc(C(=O)NC2CCN(CCNCCOCCOCCNC(=O)N[C@H]3CCCC[C@@H]3NC(=O)NCCOCCOCCNC(=O)CCN3CCC(NC(=O)c4cc(Cl)c(N)c5c4OCC5)CC3)CC2)c2c1CCO2	8.51	85.6	–
Nc1c(Cl)cc(C(=O)NC2CCN(CCC(=O)NCCOCCOCCNC(=O)N[C@H]3CC[C@@H](NC(=O)NCCOCCOCCNC(=O)CCN4CCC(NC(=O)c5cc(Cl)c(N)c6c5OCC6)CC4)CC3)CC2)c2c1CCO2	8.68	108	–
Nc1c(Cl)cc(C(=O)NC2CCN(CCC(=O)NCCOCCOCCNC(=O)Nc3ccc(NC(=O)NCCOCCOCCNC(=O)CCN4CCC(NC(=O)c5cc(Cl)c(N)c6c5OCC6)CC4)cc3)CC2)c2c1CCO2	7.98	89.8	–
Nc1c(Cl)cc(C(=O)NC2CCN(CCC(=O)NCCOCCOCCNC(=O)CCC(=O)NCCOCCOCCNC(=O)CCN3CCC(NC(=O)c4cc(Cl)c(N)c5c4OCC5)CC3)CC2)c2c1CCO2	8.33	116	–
Nc1c(Cl)cc(C(=O)NC2CCN(CCC(=O)NCCOCCOCCNC(=O)C3(C(=O)NCCOCCOCCNC(=O)CCN4CCC(NC(=O)c5cc(Cl)c(N)c6c5OCC6)CC4)CC3)CC2)c2c1CCO2	8.60	128	–
CC(C)n1nc(-c2nnc(C3CCN(CCC(=O)NCCOCCOCCNC(=O)NCCCCNC(=O)NCCOCCOCCNC(=O)CCN4CCC(c5nnc(-c6nn(C(C)C)c7ccccc67)o5)CC4)CC3)o2)c2ccccc21	< 5.00	47.8	–
Nc1c(Cl)cc(C(=O)NC2CCN(CCC(=O)NCCOCCOCCNC(=O)N[C@H]3CC[C@H](NC(=O)NCCOCCOCCNC(=O)CCN4CCC(NC(=O)c5cc(Cl)c(N)c6c5OCC6)CC4)CC3)CC2)c2c1CCO2	8.17	122	–
Nc1c(Cl)cc(C(=O)NC2CCN(CCC(=O)NCCCCCCCCNC(=O)NCCNC(=O)NCCCCCCCCNC(=O)CCN3CCC(NC(=O)c4cc(Cl)c(N)c5c4OCC5)CC3)CC2)c2c1CCO2	8.23	125	–
Nc1c(Cl)cc(C(=O)NC2CCN(CCC(=O)NCCOCCOCCNC(=O)C3(C(=O)NCCOCCOCCNC(=O)CCN4CCC(NC(=O)c5cc(Cl)c(N)c6c5OCC6)CC4)CCCCC3)CC2)c2c1CCO2	8.52	116	–
Nc1c(Cl)cc(C(=O)NCC2CCN(CCCCCNC(=O)CCOCCOCCNC(=O)NCCCCNC(=O)NCCOCCOCCC(=O)NCCCCCN3CCC(CNC(=O)c4cc(Cl)c(N)c5c4OCC5)CC3)CC2)c2c1CCO2	9.77	113	pKi [3]: 8.83
COc1cc(N)c(Cl)cc1C(=O)NC1CCN(CCC(=O)NCCOCCOCCNC(=O)NCCCCNC(=O)NCCOCCOCCNC(=O)CCN2CCC(NC(=O)c3cc(Cl)c(N)cc3OC)CC2)CC1	7.36	102	–
Nc1c(Cl)cc(C(=O)NC2CCN(CCC(=O)NCCOCCOCCNC(=O)c3ccc(C(=O)NCCOCCOCCNC(=O)CCN4CCC(NC(=O)c5cc(Cl)c(N)c6c5OCC6)CC4)cc3)CC2)c2c1CCO2	8.25	110	–
Nc1c(Cl)cc(C(=O)NC2CCN(CCCCC(=O)NCCOCCOCCNC(=O)NCCCCNC(=O)NCCOCCOCCNC(=O)CCCCN3CCC(NC(=O)c4cc(Cl)c(N)c5c4OCC5)CC3)CC2)c2c1CCO2	8.52	102	–
Nc1c(Cl)cc(C(=O)NC2CCN(CCC(=O)NCCOCCNC(=O)NCCOCCNC(=O)CCN3CCC(NC(=O)c4cc(Cl)c(N)c5c4OCC5)CC3)CC2)c2c1CCO2	9.07	123	–
